pIC50: −log10 of the molar value.
Assays:
[1] = biological target: T1, Dihydrofolate reductase (DHFR) (Homo sapiens, UniProt P00374); test: Dihydrofolate reductase (DHFR) inhibitor assay (Sigma-Aldrich DHFR assay kit); format: biochemical
T1 construct: purchased Sigma-Aldrich
T1 sequence (P00374 1-187): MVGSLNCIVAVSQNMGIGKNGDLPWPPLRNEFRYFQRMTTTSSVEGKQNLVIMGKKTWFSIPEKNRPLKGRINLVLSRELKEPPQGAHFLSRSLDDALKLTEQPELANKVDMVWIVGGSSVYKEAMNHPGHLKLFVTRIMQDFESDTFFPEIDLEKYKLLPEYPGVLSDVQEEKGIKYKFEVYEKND
Method: According to the supplier protocol, the activity of DHFR reductase was measured at […], every 15 seconds for 2.5 minutes, with the Biochrom Anthos 2010 microplate reader (Biochrom Ltd., Cambourne, Cambridge, UK). The enzymatic activity was calculated by the following formula: […]

[2] = Lipid solubility in oil; format: physicochemical
Method: Embodied compound or Methrotrexate in DMSO (3 μg/μl) were dissolved in olive oil, canola oil and sunflower oil(Sigma-Aldrich (St. Louis, Mo., USA)) at 40° C. The suspended were vortexed and centrifuged at 3000 RPM, 10 mins periodically. Oil solvent volume was stepwise increased till completely soluble was observed and the soluble concentration were determined (Table 2). The solutions were left at 24° C. overnight and were centrifuged at 5000 RPM for 20 mins. Ten microliter of embodied compound in oils were added to 100 μl deionized (DI) water. The suspensions were vigorously vortex and left at room temperature.

[3] = system: MCF-7 cells; test: cells; format: cell-based; conditions: Homo sapiens, MCF7, 24 h, read-out: IC50 (cytotoxicity)
Method: The human breast cancer cell line, MCF-7, was obtained from American Type Cell Collection (ATCC) (Rockville, Mo., U.S.A.). The cells were cultured to 70-80% confluence in Dulbecco's modified Eagle medium (DMEM) (Gibco, Grand Island, N.Y., U.S.A.) with 10% fetal bovine serum (FBS) (Gibco) at 37° C. and 5% CO2. MCF-7 cells were plated overnight in a 96-well plate (4,000 cells per well). […] Next, 10 μl/well of WST-1/ECS solution from the Quick Cell Proliferation Colorimetric Assay Kit (BioVision, Inc., Milptas, Calif., U.S.A.) was added, and the solution was incubated for 2 hours at 37° C. and 5% CO2. Absorbance was measured at 480 nm with the Biochrom Anthos 2010 microplate reader (Biochrom Ltd., Cambourne, Cambridge, UK). The half maximal inhibitory concentrations (IC50) were calculated from log-linear regression from the absorbance optical density (OD).

SMILES | Dihydrofolate reductase (DHFR) activity ([1]; inhibitor 5 mM [sic]) | Dihydrofolate reductase (DHFR) activity ([1]; inhibitor 5 mM [sic], % of no inhibitor) | Dihydrofolate reductase (DHFR) activity ([1]; inhibitor 50 mM [sic]) | Dihydrofolate reductase (DHFR) activity ([1]; inhibitor 50 mM [sic], % of no inhibitor) | Dihydrofolate reductase (DHFR) activity ([1]; inhibitor 500 mM [sic]) | Dihydrofolate reductase (DHFR) activity ([1]; inhibitor 500 mM [sic], % of no inhibitor) | Solubility in Oil (40° C.) ([2]; Canola Oil) | Solubility in Oil (40° C.) ([2]; Olive Oil) | Solubility in Oil (40° C.) ([2]; Sunflower Oil) | pIC50 [3]
CC(C)CCC[C@@H](C)[C@H]1CC[C@H]2[C@@H]3CC=C4C[C@@H](OC(=O)NCCCCNCCCNC(=O)[C@H](CCC(=O)O)NC(=O)c5ccc(N(C)Cc6cnc7nc(N)nc(N)c7n6)cc5)CC[C@]4(C)[C@H]3CC[C@]12C [Embodied compound, (4S)-4-{[3-({4-[({[(1R,3aS,3bS,7S,9aR,9bS,11aR)-9a,11a-dimethyl-1-[(2R)-6-methylheptan-2-yl]-1H,2H,3H,3aH,3bH,4H,6H,7H,8H,9H,9aH,9bH,10H,11H,11aH-cyclopenta[a]phenanthren-7-yl]oxy}carbonyl)amino]butyl}amino)propyl]carbamoyl}-4-[(4-{[(2,4-diaminopteridin-6-yl)methyl](methyl)amino}phenyl)formamido]butanoic acid] | 1.261 Unit/mgP | 8.41% | 0.561 Unit/mgP | 3.74% | 0.561 Unit/mgP | 3.74% | 81.3 mg/100 ml | 48.1 mg/100 ml | 103.6 mg/100 ml | 4.22
CN(Cc1cnc2nc(N)nc(N)c2n1)c1ccc(C(=O)N[C@@H](CCC(=O)O)C(=O)O)cc1 [MTX, (2S)-2-[(4-{[(2,4-diaminopteridin-6-yl)methyl](methyl)amino}phenyl)formamido]pentanedioic acid, reference compound] |  |  |  |  |  |  | less than 0.1 mg/100 ml | less than 0.1 mg/100 ml | less than 0.1 mg/100 ml | 2.49
